Data as given in the supplement of paper PMC11451515.

Assays:
Test in all cases: AUC of viability dose-response curve (% viability x log10 dose units); higher = less sensitive
Details in all cases: 48 h
P12-Ichikawa = tested on: P12-Ichikawa
Outline: (§1)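 Medium-adapted leukemia cells in 1536-well plates, at 500 or 1000 cells/well, were incubated for 48 h at 37°C with library compounds in DMSO at 11 threefold doses from 47 μM to 0.79 nM. CellTiter-Glo One luminescence normalised per plate to DMSO and cell-free wells was fitted with a four-parameter log-logistic model over log10 doses. Area under the curve was integrated from this fit by trapezoidal rule, with curves beyond full viability scaled and failed quality-control curves removed.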

SEM cells = tested on: SEM cells
Outline: as §1

NOMO1 = tested on: NOMO1
Outline: as §1

[1] = RPMI 5 mM glucose + 10% dialyzed FBS

Row | SMILES | AUC of viability dose-response curve (P12-Ichikawa; HPLM + 10% dialyzed FBS) | AUC of viability dose-response curve (P12-Ichikawa; RPMI 5 mM glucose + 10% FBS) | AUC of viability dose-response curve (P12-Ichikawa; [1]) | AUC of viability dose-response curve (SEM cells; HPLM + 10% dialyzed FBS) | AUC of viability dose-response curve (SEM cells; RPMI 5 mM glucose + 10% FBS) | AUC of viability dose-response curve (SEM cells; [1]) | AUC of viability dose-response curve (NOMO1; HPLM + 10% dialyzed FBS) | AUC of viability dose-response curve (NOMO1; RPMI 5 mM glucose + 10% FBS) | AUC of viability dose-response curve (NOMO1; [1])
1 | COc1cnc(N[S+](=O)([O-])c2ccc(N)cc2)nc1 | 449 | 459 | 460 | 428 | 459 | 443 | 445 | 457 | 448
2 | CC(C)C(C)/C=C/C(C)C1CCC2C3=CC=C4CC(O)CCC4(C)C3CCC21C (stereo not given) | 460 | 468 | 457 | 383 | 454 | 458 | 474 | 426 | 445
3 | Cc1c(CN2CCN(C(=O)[C@H](C)O)CC2)sc2c(N3CCOCC3)nc(-c3cnc(N)nc3)nc12 | 401 | 338 | 345 | 285 | 304 | 284 | 318 | 352 | 308
4 | C\C1=C\C(=O)OC2=C1C=CC(=C2)O | 436 | 457 | 452 | 452 | 455 | 434 | 456 | 470 | 439
5 | COC1CCC(CC1)N(C(=O)C2CCC(C)CC2)C3=C(SC(=C3)\C4=C\CCCC4)C(O)=O (stereo not given) | 438 | 451 | 450 | 455 | 449 | 441 | 442 | 446 | 454
6 | CC1(C)CCC[C@]2(C)[C@H]3CC(=O)O[C@]3(C)CC[C@@H]12 | 468 | 456 | 453 | 470 | 463 | 461 | 473 | 468 | 440
7 | C=CC(=O)Nc1cccc(Oc2nc(Nc3ccc(N4CCN(C)CC4)cc3)ncc2Cl)c1 | 420 | 392 | 421 | 369 | 303 | 351 | 465 | 454 | 459
8 | C=C(C)[C@@H]1CC[C@]2(C(=O)O)CC[C@]3(C)[C@H](CC[C@@H]4[C@@]5(C)CC[C@H](O)C(C)(C)[C@@H]5CC[C@]43C)[C@@H]12 | 445 | 461 | 427 | 420 | 410 | 397 | 452 | 473 | 466
9 | COc1cccc2cc(-c3nc(C4CCC(C(=O)O)CC4)n4ncnc(N)c34)[nH]c12 (stereo not given) | 292 | 307 | 308 | 315 | 327 | 329 | 338 | 358 | 359
10 | CNC(=O)c1ccc(-c2cnc3ncc(Cc4ccc5ncccc5c4)n3n2)cc1F | 469 | 461 | 460 | 458 | 466 | 463 | 460 | 454 | 449
11 | COC1=NC(=NC(=C1N\C2=N\CCN2)Cl)C | 413 | 450 | 424 | 420 | 380 | 426 | 446 | 429 | 418
12 | C/C=C(/C)C(=O)O[C@H]1C(C)=C2[C@H]([C@@H]1OC(=O)CCCCCCC)[C@@](C)(OC(C)=O)C[C@H](OC(=O)CCC)[C@@]1(O)[C@H]2OC(=O)[C@@]1(C)O | 364 | 297 | 257 | 211 | 183 | 174 | 206 | 224 | 211
13 | Cn1c(=O)c2c(ncn2C)n(C)c1=O.O=C(O)CC(O)(CC(=O)O)C(=O)O | 459 | 462 | 472 | 472 | 456 | 475 | 439 | 465 | 455
14 | Cc1cc(OCCCc2c(C(=O)O)n(Cc3cccnc3)c3c(-c4c(COc5ccc(N6CCN([S+](C)(=O)[O-])CC6)cc5)nn(C)c4C)cccc23)cc(C)c1Cl | 452 | 441 | 446 | 441 | 441 | 439 | 452 | 418 | 443
15 | O=C(NOCC(O)CO)c1cc(Br)c(F)c(F)c1Nc1ccc(I)cc1F (stereo not given) | 361 | 333 | 345 | 327 | 340 | 306 | 238 | 244 | 219
16 | FC(F)(F)c1ccc(/C=C/c2nc(COc3ccc(CCCCn4ccnn4)cc3)co2)cc1 | 338 | 309 | 362 | 445 | 411 | 374 | 360 | 359 | 381
17 | CN1[C@@H]2CC(OC(=O)[C@@H](CO)c3ccccc3)C[C@H]1[C@H]1O[C@H]12 (stereo not given in full) | 474 | 469 | 435 | 445 | 443 | 442 | 452 | 417 | 451
18 | CN[S+](=O)([O-])Cc1ccc2[nH]cc(CCN(C)C)c2c1 | 467 | 457 | 460 | 442 | 431 | 456 | 454 | 443 | 454
19 | Oc1ccc2c3c1O[C@H]1c4[nH]c5c(c4C[C@@]4(O)[C@@H](C2)N(CC2CC2)CC[C@]314)C[C@@]1(O)[C@H]2Cc3ccc(O)c4c3[C@@]1(CCN2CC1CC1)[C@H]5O4 | 463 | 440 | 428 | 422 | 429 | 454 | 448 | 443 | 472
20 | NC1(Cc2ccc(Cl)cc2)CCN(c2ncnc3[nH]ccc23)CC1 | 425 | 384 | 393 | 377 | 357 | 352 | 418 | 395 | 381
21 | Cc1cn2c(-c3cn[nH]c3)cnc2c(Nc2ccc(C(=O)N3CCNCC3)cc2F)n1 | 444 | 440 | 439 | 419 | 424 | 421 | 430 | 417 | 409
22 | CCc1cc(Nc2nccc(-c3c(-c4ccc(OC)c(C(=O)Nc5c(F)cccc5F)c4)nc4ccccn34)n2)c(OC)cc1N1CCC(N2CCN([S+](C)(=O)[O-])CC2)CC1 | 453 | 451 | 453 | 423 | 435 | 386 | 459 | 464 | 457
23 | C/C=C1\NC(=O)[C@H]2CSSCC/C=C\[C@H](CC(=O)N[C@H](C(C)C)C(=O)N2)OC(=O)[C@H](C(C)C)NC1=O | 175 | 174 | 176 | 166 | 170 | 162 | 182 | 181 | 189
24 | CC(C)NCC(O)COc1ccc(COCCOC(C)C)cc1 (stereo not given) | 457 | 463 | 463 | 468 | 474 | 469 | 458 | 461 | 459
25 | CC1(C)O[C@@H]2C[C@H]3[C@@H]4CCC5=CC(=O)C=C[C@]5(C)[C@@]4(F)[C@@H](O)C[C@]3(C)[C@]2(C(=O)CO)O1 | 315 | 288 | 288 | 255 | 270 | 280 | 411 | 418 | 456
26 | COc1ccc(CC2NCCc3cc(OC)c(OC)cc32)cc1OC (stereo not given) | 459 | 416 | 420 | 397 | 390 | 403 | 451 | 427 | 407
27 | CC/C(=C(/c1ccc(O)cc1)c1ccc(OCCNC)cc1)c1ccccc1 | 432 | 414 | 405 | 410 | 412 | 405 | 443 | 459 | 452
28 | Cc1ccccc1C(C(=O)NC1CCCCC1)N(C(=O)Cn1ccnc1C)c1cccc(F)c1 (stereo not given) | 442 | 461 | 466 | 449 | 462 | 438 | 452 | 456 | 455
29 | CC(=O)N(C)c1cccc(-c2ccnc3c(C(=O)c4cccs4)cnn23)c1 | 458 | 454 | 453 | 447 | 456 | 439 | 477 | 470 | 437
30 | N=C(CCSCc1csc(N=C(N)N)n1)N[S+](N)(=O)[O-] | 467 | 454 | 432 | 452 | 458 | 421 | 459 | 439 | 461
